The record followed here is ChEMBL document CHEMBL1909046, “DrugMatrix in vitro pharmacology data”.
Throughout, for Ki: in other assays of this panel Not Active means under 50% inhibition at 10 µM.

Cytochrome P450 2C19, sequence (P33261 whole entry): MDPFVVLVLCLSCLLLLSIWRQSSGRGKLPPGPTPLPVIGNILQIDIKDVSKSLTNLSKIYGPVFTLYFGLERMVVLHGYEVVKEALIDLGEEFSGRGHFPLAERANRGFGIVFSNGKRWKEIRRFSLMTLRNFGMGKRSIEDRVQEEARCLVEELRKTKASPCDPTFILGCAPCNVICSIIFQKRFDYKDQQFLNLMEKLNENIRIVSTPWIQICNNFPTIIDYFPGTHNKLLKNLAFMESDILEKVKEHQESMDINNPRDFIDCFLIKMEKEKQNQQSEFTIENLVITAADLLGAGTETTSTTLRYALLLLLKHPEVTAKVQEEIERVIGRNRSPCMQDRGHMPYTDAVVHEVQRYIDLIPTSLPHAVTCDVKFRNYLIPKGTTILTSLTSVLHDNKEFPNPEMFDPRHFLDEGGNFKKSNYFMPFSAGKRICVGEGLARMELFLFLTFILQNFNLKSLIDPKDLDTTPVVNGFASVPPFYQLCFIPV
Acetylcholinesterase, sequence (P22303 whole entry): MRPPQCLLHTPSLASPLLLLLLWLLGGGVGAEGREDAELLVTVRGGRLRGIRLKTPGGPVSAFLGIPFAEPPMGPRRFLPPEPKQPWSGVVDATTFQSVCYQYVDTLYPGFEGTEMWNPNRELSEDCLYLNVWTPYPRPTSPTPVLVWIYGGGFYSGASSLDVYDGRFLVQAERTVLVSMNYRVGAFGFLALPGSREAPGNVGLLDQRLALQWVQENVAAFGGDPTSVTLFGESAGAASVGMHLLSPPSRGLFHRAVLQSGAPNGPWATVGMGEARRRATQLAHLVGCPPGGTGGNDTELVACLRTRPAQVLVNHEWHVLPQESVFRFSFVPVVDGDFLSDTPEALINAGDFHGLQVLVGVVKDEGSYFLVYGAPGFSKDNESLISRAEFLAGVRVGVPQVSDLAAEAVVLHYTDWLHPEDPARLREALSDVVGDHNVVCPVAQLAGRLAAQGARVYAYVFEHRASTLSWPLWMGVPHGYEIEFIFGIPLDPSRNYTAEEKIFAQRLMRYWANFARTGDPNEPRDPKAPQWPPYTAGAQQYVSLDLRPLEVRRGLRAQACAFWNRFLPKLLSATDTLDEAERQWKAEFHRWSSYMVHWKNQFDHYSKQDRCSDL

The first data set has as its target T1, Cytochrome P450 2A6 (Homo sapiens, UniProt P11509). Note: in other assays of this panel Not Active means under 50% inhibition at 10 µM.
T1 sequence (P11509 whole entry): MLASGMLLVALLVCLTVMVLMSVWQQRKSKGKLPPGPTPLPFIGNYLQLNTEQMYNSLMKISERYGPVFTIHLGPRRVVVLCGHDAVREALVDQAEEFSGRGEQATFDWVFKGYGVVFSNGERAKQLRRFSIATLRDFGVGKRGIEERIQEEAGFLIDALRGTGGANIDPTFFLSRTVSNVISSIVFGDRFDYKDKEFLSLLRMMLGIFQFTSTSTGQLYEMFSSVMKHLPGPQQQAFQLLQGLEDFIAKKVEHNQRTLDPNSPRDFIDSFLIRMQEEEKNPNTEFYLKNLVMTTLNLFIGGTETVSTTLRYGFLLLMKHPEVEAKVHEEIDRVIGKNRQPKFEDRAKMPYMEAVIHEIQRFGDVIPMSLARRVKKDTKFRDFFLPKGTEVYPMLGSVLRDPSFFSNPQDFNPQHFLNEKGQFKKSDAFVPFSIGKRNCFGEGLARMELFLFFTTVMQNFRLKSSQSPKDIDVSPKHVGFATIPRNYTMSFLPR
Test: not given
Conditions: bti-tn-5b1-4.
Regarding `CC(=O)CCCCn1c(=O)c2c(ncn2C)n(C)c1=O` [PENTOXIFYLLINE], the IC50 entry is “Not Active” and the Ki result is “Not Active”.
On to `O=C1CN=C(c2ccccc2)c2cc([N+](=O)[O-])ccc2N1` [NITRAZEPAM], for which the IC50 entry is on record as “Not Active” and the Ki result is “Not Active”.
As for `CCC1(c2ccccc2)C(=O)NCNC1=O` [PRIMIDONE], the IC50 result is given as “Not Active” and the Ki result is reported as “Not Active”.
Regarding `CC=CC(=O)N(CC)c1ccccc1C`, the IC50 result is recorded as “Not Active” and the Ki entry is given as “Not Active”.

A further data set deals with Vasopressin V1a receptor (Homo sapiens, UniProt P37288).
Vasopressin V1a receptor, sequence (P37288 whole entry): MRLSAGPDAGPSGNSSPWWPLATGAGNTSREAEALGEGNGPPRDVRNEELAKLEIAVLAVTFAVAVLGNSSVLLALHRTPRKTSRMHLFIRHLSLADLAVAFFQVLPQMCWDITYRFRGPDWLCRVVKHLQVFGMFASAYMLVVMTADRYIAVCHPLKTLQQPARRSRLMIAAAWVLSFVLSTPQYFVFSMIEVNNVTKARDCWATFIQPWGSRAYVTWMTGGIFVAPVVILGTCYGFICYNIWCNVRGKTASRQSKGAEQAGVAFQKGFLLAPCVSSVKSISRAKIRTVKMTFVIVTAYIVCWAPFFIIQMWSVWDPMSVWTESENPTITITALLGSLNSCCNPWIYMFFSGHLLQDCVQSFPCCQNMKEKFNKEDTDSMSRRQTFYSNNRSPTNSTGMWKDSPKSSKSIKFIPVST
Test: not given
Type of data set: cell membranes, Membrane. To be noted: hek293.
As for `CC(=O)CCCCn1c(=O)c2c(ncn2C)n(C)c1=O` [PENTOXIFYLLINE], the IC50 entry is recorded as “Not Active”.
On the same count and under the same terms, with `O=C1CN=C(c2ccccc2)c2cc([N+](=O)[O-])ccc2N1` [NITRAZEPAM] the entry was “Not Active”; with `CCC1(c2ccccc2)C(=O)NCNC1=O` [PRIMIDONE], “Not Active”; with `CC=CC(=O)N(CC)c1ccccc1C`, “Not Active”.

Another data set has as its target T2, Cytochrome P450 1A2 (Homo sapiens, UniProt P05177). Note: in other assays of this panel Not Active means under 50% inhibition at 10 µM.
T2 sequence (P05177 whole entry): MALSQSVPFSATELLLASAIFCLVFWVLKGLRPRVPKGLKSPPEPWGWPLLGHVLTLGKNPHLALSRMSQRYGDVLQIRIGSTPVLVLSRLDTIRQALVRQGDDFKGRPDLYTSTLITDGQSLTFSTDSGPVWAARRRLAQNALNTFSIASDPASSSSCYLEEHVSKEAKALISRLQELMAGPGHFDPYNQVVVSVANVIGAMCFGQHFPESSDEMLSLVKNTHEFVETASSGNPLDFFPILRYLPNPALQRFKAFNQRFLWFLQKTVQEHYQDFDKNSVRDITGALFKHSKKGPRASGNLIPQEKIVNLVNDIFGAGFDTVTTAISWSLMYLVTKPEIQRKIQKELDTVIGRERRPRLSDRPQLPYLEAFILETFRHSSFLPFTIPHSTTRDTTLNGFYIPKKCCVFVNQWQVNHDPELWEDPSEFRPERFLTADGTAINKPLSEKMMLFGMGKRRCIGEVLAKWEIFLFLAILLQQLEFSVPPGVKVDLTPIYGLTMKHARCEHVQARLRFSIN
Test: not given
Conditions: bti-tn-5b1-4.
`CC(=O)CCCCn1c(=O)c2c(ncn2C)n(C)c1=O` [PENTOXIFYLLINE]: the IC50 result was “Not Active” and the Ki entry is “Not Active”.
Take `O=C1CN=C(c2ccccc2)c2cc([N+](=O)[O-])ccc2N1` [NITRAZEPAM]: the IC50 result is given as “Not Active” and the Ki result was “Not Active”.
With `CCC1(c2ccccc2)C(=O)NCNC1=O` [PRIMIDONE], the IC50 entry is “Not Active” and the Ki entry is recorded as “Not Active”.
Consider `CC=CC(=O)N(CC)c1ccccc1C`, for which the IC50 entry is “Not Active” and the Ki entry is on record as “Not Active”.

In the next data set the target is T3, Neuropeptide Y receptor type 2 (Homo sapiens, UniProt P49146). Note: in other assays of this panel Not Active means under 50% inhibition at 10 µM.
T3 sequence (P49146 whole entry): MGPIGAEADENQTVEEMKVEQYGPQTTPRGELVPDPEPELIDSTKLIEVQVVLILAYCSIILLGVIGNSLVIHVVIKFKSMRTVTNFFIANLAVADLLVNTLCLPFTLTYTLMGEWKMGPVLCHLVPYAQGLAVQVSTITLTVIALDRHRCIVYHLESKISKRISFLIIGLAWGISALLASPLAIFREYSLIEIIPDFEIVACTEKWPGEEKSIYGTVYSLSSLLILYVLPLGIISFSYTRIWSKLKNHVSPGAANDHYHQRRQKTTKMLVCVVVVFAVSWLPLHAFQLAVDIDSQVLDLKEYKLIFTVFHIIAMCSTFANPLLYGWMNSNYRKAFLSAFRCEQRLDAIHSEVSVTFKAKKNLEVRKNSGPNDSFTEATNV
Test: not given
Type of data set: cell membranes, Membrane. Conditions: kan-ts.
Regarding `CC(=O)CCCCn1c(=O)c2c(ncn2C)n(C)c1=O` [PENTOXIFYLLINE], the IC50 result is given as “Not Active”.
Take `O=C1CN=C(c2ccccc2)c2cc([N+](=O)[O-])ccc2N1` [NITRAZEPAM]: the IC50 result is “Not Active”.
Regarding `CCC1(c2ccccc2)C(=O)NCNC1=O` [PRIMIDONE], the IC50 result is “Not Active”.
With `CC=CC(=O)N(CC)c1ccccc1C`, the IC50 result was “Not Active”.

Another data set has as its target Acetylcholinesterase (Homo sapiens, UniProt P22303). In words: DRUGMATRIX: Acetylcholinesterase enzyme inhibition (substrate: acetylthiocholine). Type of data set: cell-based, HEK293. To be noted: hek293; Not Active = under 50% inhibition at 10 µM.
Regarding `CC(=O)CCCCn1c(=O)c2c(ncn2C)n(C)c1=O` [PENTOXIFYLLINE], the IC50 entry was “Not Active”.
The same measure, in the same setting: with `O=C1CN=C(c2ccccc2)c2cc([N+](=O)[O-])ccc2N1` [NITRAZEPAM] the entry was “Not Active”; with `CCC1(c2ccccc2)C(=O)NCNC1=O` [PRIMIDONE], “Not Active”.
The same measure, in the same setting: the entry for `CC=CC(=O)N(CC)c1ccccc1C` is “Not Active”.

A further data set deals with Voltage-gated inwardly rectifying potassium channel KCNH2 (Homo sapiens, UniProt Q12809).
Voltage-gated inwardly rectifying potassium channel KCNH2, sequence (Q12809 whole entry): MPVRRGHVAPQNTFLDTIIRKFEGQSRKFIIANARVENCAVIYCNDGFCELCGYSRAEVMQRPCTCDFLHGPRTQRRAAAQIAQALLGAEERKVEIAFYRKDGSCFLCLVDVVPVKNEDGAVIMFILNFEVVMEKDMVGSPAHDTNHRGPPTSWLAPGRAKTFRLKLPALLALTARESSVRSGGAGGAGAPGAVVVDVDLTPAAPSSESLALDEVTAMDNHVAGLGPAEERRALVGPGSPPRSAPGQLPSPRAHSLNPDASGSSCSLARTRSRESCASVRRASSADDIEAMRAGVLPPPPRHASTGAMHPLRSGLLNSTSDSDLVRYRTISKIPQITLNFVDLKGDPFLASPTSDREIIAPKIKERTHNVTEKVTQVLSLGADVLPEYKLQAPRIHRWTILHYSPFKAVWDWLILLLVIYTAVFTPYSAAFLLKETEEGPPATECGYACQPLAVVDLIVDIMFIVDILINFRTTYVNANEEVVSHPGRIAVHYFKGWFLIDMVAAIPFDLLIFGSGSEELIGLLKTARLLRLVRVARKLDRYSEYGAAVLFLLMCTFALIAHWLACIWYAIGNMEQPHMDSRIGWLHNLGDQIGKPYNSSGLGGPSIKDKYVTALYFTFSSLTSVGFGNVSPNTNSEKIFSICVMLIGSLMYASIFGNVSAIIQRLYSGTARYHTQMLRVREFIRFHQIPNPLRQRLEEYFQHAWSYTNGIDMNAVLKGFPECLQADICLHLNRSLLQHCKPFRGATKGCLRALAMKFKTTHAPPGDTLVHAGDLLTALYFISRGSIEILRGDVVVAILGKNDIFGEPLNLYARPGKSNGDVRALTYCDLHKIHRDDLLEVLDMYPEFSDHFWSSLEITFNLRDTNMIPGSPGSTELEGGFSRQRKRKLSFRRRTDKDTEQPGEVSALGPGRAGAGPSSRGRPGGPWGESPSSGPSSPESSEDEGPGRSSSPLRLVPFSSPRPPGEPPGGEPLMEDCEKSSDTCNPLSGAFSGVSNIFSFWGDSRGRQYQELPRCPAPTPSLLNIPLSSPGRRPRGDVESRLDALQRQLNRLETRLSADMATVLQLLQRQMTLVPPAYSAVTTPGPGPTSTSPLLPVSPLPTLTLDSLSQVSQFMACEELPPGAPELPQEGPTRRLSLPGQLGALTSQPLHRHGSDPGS
Test: not given
To be noted: hek293.
For the compound `CC(=O)CCCCn1c(=O)c2c(ncn2C)n(C)c1=O` [PENTOXIFYLLINE], the IC50 entry was “Not Active” and the Ki entry is given as “Not Active”.
`O=C1CN=C(c2ccccc2)c2cc([N+](=O)[O-])ccc2N1` [NITRAZEPAM]: the IC50 result is on record as “Not Active” and the Ki entry is “Not Active”.
With `CCC1(c2ccccc2)C(=O)NCNC1=O` [PRIMIDONE], the IC50 result was “Not Active” and the Ki result was “Not Active”.
Consider `CC=CC(=O)N(CC)c1ccccc1C`, for which the IC50 entry is “Not Active” and the Ki result was “Not Active”.

The target of the next data set is T4, Thromboxane-A synthase (Homo sapiens, UniProt P24557).
T4 sequence (P24557 whole entry): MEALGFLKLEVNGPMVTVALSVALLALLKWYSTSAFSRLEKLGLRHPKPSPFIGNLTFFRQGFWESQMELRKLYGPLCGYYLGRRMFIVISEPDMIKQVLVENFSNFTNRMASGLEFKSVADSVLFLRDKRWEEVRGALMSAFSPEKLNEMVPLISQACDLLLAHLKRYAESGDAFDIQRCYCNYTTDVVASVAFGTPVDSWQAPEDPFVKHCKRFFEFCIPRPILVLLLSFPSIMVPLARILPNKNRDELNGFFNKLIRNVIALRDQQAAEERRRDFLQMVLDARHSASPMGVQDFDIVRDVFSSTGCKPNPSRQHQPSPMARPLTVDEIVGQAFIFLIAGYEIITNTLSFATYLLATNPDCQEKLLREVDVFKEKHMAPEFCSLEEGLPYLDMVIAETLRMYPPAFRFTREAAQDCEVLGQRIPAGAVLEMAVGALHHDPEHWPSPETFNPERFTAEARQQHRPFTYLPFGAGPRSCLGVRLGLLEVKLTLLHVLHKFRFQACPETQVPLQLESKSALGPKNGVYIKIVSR
In words: biochemical. Type of data set: tissue-based, Platelet. To be noted: platelet.
For `CC(=O)CCCCn1c(=O)c2c(ncn2C)n(C)c1=O` [PENTOXIFYLLINE], the IC50 entry is given as “Not Active”.
On to `O=C1CN=C(c2ccccc2)c2cc([N+](=O)[O-])ccc2N1` [NITRAZEPAM], for which the IC50 entry was “Not Active”.
On the same count and under the same terms, the entry for `CCC1(c2ccccc2)C(=O)NCNC1=O` [PRIMIDONE] is “Not Active”; for `CC=CC(=O)N(CC)c1ccccc1C` it is “Not Active”.

The target of a further data set is Cytochrome P450 3A4 (Homo sapiens, UniProt P08684). Note: in other assays of this panel Not Active means under 50% inhibition at 10 µM.
Cytochrome P450 3A4, sequence (P08684 whole entry): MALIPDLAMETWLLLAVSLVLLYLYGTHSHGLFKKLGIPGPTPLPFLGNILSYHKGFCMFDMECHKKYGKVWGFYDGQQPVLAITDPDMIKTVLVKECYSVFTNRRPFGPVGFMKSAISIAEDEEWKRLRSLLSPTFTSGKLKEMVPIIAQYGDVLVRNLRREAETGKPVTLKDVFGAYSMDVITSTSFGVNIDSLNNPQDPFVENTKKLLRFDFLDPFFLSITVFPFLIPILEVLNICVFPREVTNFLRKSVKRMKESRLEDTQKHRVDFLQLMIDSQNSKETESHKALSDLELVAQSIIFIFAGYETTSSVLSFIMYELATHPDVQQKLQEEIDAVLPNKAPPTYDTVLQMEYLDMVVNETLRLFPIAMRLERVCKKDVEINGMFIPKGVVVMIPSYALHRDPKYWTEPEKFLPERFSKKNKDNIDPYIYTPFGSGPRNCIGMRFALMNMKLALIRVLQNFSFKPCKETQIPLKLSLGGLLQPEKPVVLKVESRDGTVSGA
Test: not given
To be noted: bti-tn-5b1-4.
Turning to `CC(=O)CCCCn1c(=O)c2c(ncn2C)n(C)c1=O` [PENTOXIFYLLINE], the IC50 entry is recorded as “Not Active” and the Ki result is “Not Active”.
As for `O=C1CN=C(c2ccccc2)c2cc([N+](=O)[O-])ccc2N1` [NITRAZEPAM], the IC50 entry is given as “Not Active” and the Ki result is recorded as “Not Active”.
For `CCC1(c2ccccc2)C(=O)NCNC1=O` [PRIMIDONE], the IC50 result is recorded as “Not Active” and the Ki entry is listed as “Not Active”.
For the compound `CC=CC(=O)N(CC)c1ccccc1C`, the IC50 result was “Not Active” and the Ki entry is on record as “Not Active”.

The next data set deals with Carbonic anhydrase 2 (Homo sapiens, UniProt P00918). In words: DRUGMATRIX: Carbonic Anhydrase II enzyme inhibition (substrate: 4-Nitrophenyl acetate (4-NPA)). To be noted: erythrocyte; Not Active = under 50% inhibition at 10 µM. Type of data set: tissue-based, Erythrocyte.
As to `CC(=O)CCCCn1c(=O)c2c(ncn2C)n(C)c1=O` [PENTOXIFYLLINE], the IC50 result is “Not Active”.
With `O=C1CN=C(c2ccccc2)c2cc([N+](=O)[O-])ccc2N1` [NITRAZEPAM], the IC50 entry was “Not Active”.
Still for that read-out and setting: with `CCC1(c2ccccc2)C(=O)NCNC1=O` [PRIMIDONE] the entry was “Not Active”; with `CC=CC(=O)N(CC)c1ccccc1C`, “Not Active”.

The next data set addresses Cytochrome P450 2C19 (Homo sapiens, UniProt P33261).
Test: not given
To be noted: bti-tn-5b1-4.
In the case of `CC(=O)CCCCn1c(=O)c2c(ncn2C)n(C)c1=O` [PENTOXIFYLLINE], the IC50 entry is “Not Active” and the Ki result is on record as “Not Active”.
Turning to `O=C1CN=C(c2ccccc2)c2cc([N+](=O)[O-])ccc2N1` [NITRAZEPAM], the IC50 entry is on record as “Not Active” and the Ki entry is “Not Active”.
On to `CCC1(c2ccccc2)C(=O)NCNC1=O` [PRIMIDONE], for which the IC50 result is on record as “Not Active” and the Ki result is “Not Active”.
As for `CC=CC(=O)N(CC)c1ccccc1C`, the IC50 result is reported as “Not Active” and the Ki entry is given as “Not Active”.
